Measured values published in publication PMC7359024, “Synthesis, Structure–Activity Relationship, and Mechanistic Studies of Aminoquinazolinones Displaying Antimycobacterial Activity” (ACS Infectious Diseases, 2020).
Converted amounts (≈) assume the structure as drawn. Read-outs that look alike come from different tables or passages of the source.

Key:
Mtb H37Rv strain = experiment: MIC90 determination in GASTE-Fe media (broth microdilution); type: cell-based, Mycobacterium tuberculosis; conditions: Mycobacterium tuberculosis, H37RV, 336 h, read-out: MIC90 GASTE-Fe
H37Rv Mtb strain = experiment: MIC90 in different media, H37Rv strain; type: cell-based, Mycobacterium tuberculosis
physchem = type: physicochemical; conditions: 25 °C, pH 7.4, aqueous buffer, kinetic solubility, pH 7.4, HPLC method
Description: The kinetic solubility assay was performed using a miniaturised shake flask method. 10 mM stock solutions of each of the test compounds were used to prepare calibration standards (10-220μM) in DMSO. The same 10mM stock solutions were accurately dispensed in duplicate into 96-well plates and the DMSO dried down (MiVac GeneVac, 90 min, 37 °C). Thereafter, the samples were reconstituted (200 µM) in phosphate buffered saline (pH 7.4) and shaken (20 hours, 25 °C). The solutions were filtered and analysed by means of HPLC -DAD (Agilent 1200 Rapid Resolution HPLC with a diode array detector). […]

[1] = type: in vitro ADME; conditions: human liver microsomes
Description: 3.2. Microsomal stability
The metabolic stability assay was performed in duplicate in a 96-well micro titre plate. The test compounds (0.1 μM) were incubated individually in mouse, rat and pooled human liver microsomes ((final protein concentration of 0.4 mg/mL; XenoTech, Lenexa, KS ), suspended in 0.1M phosphate buffer (pH 7.4) at 37 °C for predetermined time points, in the presence and absence of the cofactor NADPH (1 mM). Reactions were quenched by adding ice cold acetonitrile containing internal standard (carbamazepine, 0.0236 µg/mL). T he samples were centrifuged and test compound in the supernatant were analysed by means of LC -MS/MS (Agilent Rapid Resolution HPLC, AB SCIEX 4500 MS ). The relative loss of parent compound over time was monitored and plots (concentration vs. time) were prepared per compound to determine the first order rate constant for compound depletion. This was in turn used to calculate half-life, in vitro intrinsic clearance and in vivo hepatic extraction ratio. Metabolite searches were not conducted during the metabolic stability assay. 5

in vivo = experiment: in vivo; parameters: species or system C57/BL6 mice
Description: In vivo PK studies were performed on compound 1 (sulfone) and compound 2 (sulfoxide) (Table 3). All studies and procedures were conducted with prior approval of the animal ethics committee of the University of Cape Town (approval numbers 013/028 and 014/028) in accordance with the South African National Standard (SANS 10386:008) for the Care and Use of Animals for Scientific Purposes and guidelines from the Department of Health. […]
the South African National Standard (SANS 10386:008) for the Care and Use of Animals for Scientific Purposes,6 and guidelines from the Department of Health.7
The pharmacokinetic parameters of the compounds were determined by dosing the compound to C57/BL6 mice through oral (n = 3 mice) and intravenous (n = 3 mice) administration. For oral administration, the compounds were formulated in 0.5% hydroxypropylmethyl cellulose (HPMC) in Phosphate buffered saline pH 7.4. The intravenous doses were administered in dimethylacetamide-polyethylene glycol 400-polypropylene glycol (DMA-PEG400-PPG) (10:30:60) Blood samples were collected via tail bleeding at predetermined time points and stored at -80°C until liquid chromatography-tandem mass spectrometry (LC-MS/MS) analysis.
The whole-blood concentrations of the compounds were determined using a quantitative LC- […]
method, using ice -cold acetonitrile.
After centrifugation, the supernatant was transferred to 96 -well plates for analysis. LC -MS/MS was carried out on an AB Sciex 400 0 QTrap coupled to an Agilent 1200 high -performance liquid chromatograph (HPLC). Separation was achieved on a Kinetex PFP column column, using 0.1% formic acid in water as the aqueous mobile phase and 0.1% formic acid in acetonitrile as the organic mobile phase. The analytical limit of quantitation (LOQ) was 1 ng/ml. LC-MS/MS method accuracy and precision were 15% (nom) for the standards and […]
Concentration-versus-time data were used to derive the PK parameters using noncompartmental analys is on PK Solutions 2.0 (Summit Research Services, Montrose, CO,

[2] = test system: cytochrome-bd oxidase knockout mutant strain (Δcyd); type: cell-based
iniB expression = type: cell-based; conditions: detects compounds targeting cell-wall biosynthesis
recA expression = type: cell-based; conditions: indicator of genotoxic compounds
Erdman Mtb strain = experiment: MIC90 in different media, Erdman strain; type: cell-based; conditions: Mycobacterium tuberculosis
in vitro = conditions: Chinese hamster
[3] = Erdman, 7H12 + casitone + palmitic acid + BSA + catalase + Tween 80 (glycerol-free)
[4] = Mycobacterium tuberculosis, H37RV; 7H12 + casitone + palmitic acid + BSA + catalase + Tween 80 (glycerol-free); read-out: MIC90
[5] = Mycobacterium tuberculosis, H37RV; read-out: MIC90
[6] = 100 mg/kg oral once per day, 12 days, three days after last dose, untreated 6.51

Q: With `CO[C@H]1/C=C/O[C@@]2(C)Oc3c(C)c(O)c4c(O)c(c(/C=N/N5CCN(C)CC5)c(O)c4c3C2=O)NC(=O)/C(C)=C\C=C\[C@H](C)[C@H](O)[C@@H](C)[C@@H](O)[C@@H](C)[C@H](OC(C)=O)[C@@H]1C` [Rifampicin, reference compound] as the compound, how does the MIC90 (Mtb H37Rv strain) read?
A: 0.0039 µM (≈ 0.00321 µg/mL)

Q: What about the MIC90 (H37Rv Mtb strain) of the same compound?
A: <0.008 µg/mL

Q: What about the MIC (H37Rv Mtb strain; Mycobacterium tuberculosis, H37RV, read-out: MIC90) of the same compound?
A: 0.016 µg/mL (≈ 0.0194 µM)

Q: What about the mean lung burdens (Mtb Erdman-Lux; mouse, in vivo) of the same compound?
A: 5.72 log10 CFU

Q: And the “reduction of lung burdens” value (Mtb Erdman-Lux; mouse, in vivo)?
A: 0.8 log

Q: With `C[S+]([O-])c1cccc(-c2ccc3nc(N)n(-c4ccc(C(F)(F)F)cc4)c(=O)c3c2)c1` (stereo not shown) [compound 2, 2-Amino-6-(3-(methylsulfinyl)phenyl)-3-(4-(trifluoromethyl)phenyl)quinazolin-4(3H)-one] as the compound, how does the MIC90 (Mtb H37Rv strain; Mtb H37Rv, replicating conditions, GASTE-Fe media, read 14 days after incubation) read?
A: 0.64 µM (≈ 0.284 µg/mL)

Q: What about the solubility (physchem) of the same compound?
A: 80 µM (≈ 35.5 µg/mL)

Q: And the “Metabolic Stability H (% Rem.)” value [1]?
A: 88/-/- % Rem.

Q: What about the Vd (in vivo; C57/BL6, in vivo, mouse, iv 5 mg/kg) of the same compound?
A: 11.1 L/kg

Q: What about the clearance (in vivo; C57/BL6, in vivo, mouse, iv 5 mg/kg, read-out: CLtotal) of the same compound?
A: 21.8 mL/min/kg

Q: What about the half-life (in vivo; C57/BL6, in vivo, mouse, iv 5 mg/kg, read-out: apparent t1/2 (converted)) of the same compound?
A: 6.2 h

Q: What about the Tmax (in vivo; C57/BL6, in vivo, mouse, oral 20 mg/kg) of the same compound?
A: 0.5 h

Q: And the Cmax (in vivo; C57/BL6, in vivo, mouse, oral 20 mg/kg, whole blood)?
A: 3.54 µM

Q: And the bioavailability (in vivo; C57/BL6, mouse, in vivo, oral 20 mg/kg vs iv 5 mg/kg, read-out: bioavailability)?
A: 93%

Q: And the “AUC0–∞” value (in vivo; mouse, iv 5 mg/kg)?
A: 523 min·μmol·L^–1

Q: And the “AUC0–∞” value (in vivo; mouse, oral 20 mg/kg)?
A: 2152 min·μmol·L^–1

Q: What about the “Δcyd GASTE-Fe MIC90” value [2] of the same compound?
A: 2.5 µM

Q: What about the “signal in PiniB-LUX reporter assay” value (iniB expression) of the same compound?
A: did not show a positive signal

Q: And the “signal in PrecA-LUX reporter assay” value (recA expression)?
A: did not show a positive signal

Q: What about the MIC (Erdman Mtb strain) of the same compound?
A: 1 µg/mL (≈ 2.26 µM)

Q: And the MIC (Erdman Mtb strain; [3])?
A: > 16 µg/mL

Q: What about the MIC (H37Rv Mtb strain; [4]) of the same compound?
A: > 16 µg/mL

Q: What about the MIC (H37Rv Mtb strain; [5]) of the same compound?
A: 0.5 µg/mL (≈ 1.13 µM)

Q: And the mean lung burdens (Mtb Erdman-Lux; [6])?
A: 7.84 log10 CFU

Q: What about the mean lung burdens (Mtb Erdman-Lux; 200 mg/kg oral once per day, 12 days, three days after last dose, untreated 6.51) of the same compound?
A: 7.75 log10 CFU

Q: What about the tolerability (Mtb Erdman-Lux; 100 and 200 mg/kg oral once per day, 12 consecutive days) of the same compound?
A: no evidence of compound tolerability issues

Q: And the “efficacy in the BALB/c acute infection model” value (Mtb Erdman-Lux; 100 and 200 mg/kg oral, 12 days)?
A: lack efficacy

Q: What about the IC50 (in vitro) of the same compound?
A: > 100 µM

Q: For `CC[C@@H](CO)NCCN[C@@H](CC)CO` [ethambutol, reference compound], which mean lung burdens (Mtb Erdman-Lux; [6]) is on record?
A: 4.15 log10 CFU

Q: And the “reduction of lung burdens” value (Mtb Erdman-Lux; 100 mg/kg, relative to untreated)?
A: 2.4 log

Q: Which results are given for `NNC(=O)c1ccncc1` [isoniazid, reference compound]?
A: MIC (Erdman Mtb strain): 0.016 µg/mL (≈ 0.117 µM); MIC (Erdman Mtb strain; [3]): 0.016 µg/mL; MIC (H37Rv Mtb strain; [4]): 0.016 µg/mL; MIC (H37Rv Mtb strain; [5]): 0.016 µg/mL (≈ 0.117 µM)
